According to US9573957B2 (Boehringer Ingelheim International GmbH, priority 2013, dated 2017):
pIC50: −log10 of the molar value.

Columns and labels:
[1] = tested on: synthesis of LTB4 in human whole blood; assay: LTB4 production inhibition assay in human whole blood (HWB); assay type: cell-based; conditions: heparinized human whole blood, 15 min at 37° C., Calcimycin 20 μM 30 min, plasma LTB4 by HTRF
Summary of the method: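 Heparinized human whole blood preincubated with compound 15 min at 37° C, then stimulated with calcimycin (20 μM final) for 30 min at 37° C. Plasma separated by centrifugation; LTB4 measured by antibody-based homogeneous time-resolved fluorescence.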

human LTA4 hydrolase = human LTA4 hydrolase (Homo sapiens (Human), UniProt P09960); assay: LTA4H Enzyme assay (peptidase, Arg-AMC cleavage); assay type: biochemical; conditions: LTA4H Enzyme 1 nM, Arg-AMC substrate 50 μM, room temperature 1 h, fluorescence
human LTA4 hydrolase, sequence (P09960 whole entry): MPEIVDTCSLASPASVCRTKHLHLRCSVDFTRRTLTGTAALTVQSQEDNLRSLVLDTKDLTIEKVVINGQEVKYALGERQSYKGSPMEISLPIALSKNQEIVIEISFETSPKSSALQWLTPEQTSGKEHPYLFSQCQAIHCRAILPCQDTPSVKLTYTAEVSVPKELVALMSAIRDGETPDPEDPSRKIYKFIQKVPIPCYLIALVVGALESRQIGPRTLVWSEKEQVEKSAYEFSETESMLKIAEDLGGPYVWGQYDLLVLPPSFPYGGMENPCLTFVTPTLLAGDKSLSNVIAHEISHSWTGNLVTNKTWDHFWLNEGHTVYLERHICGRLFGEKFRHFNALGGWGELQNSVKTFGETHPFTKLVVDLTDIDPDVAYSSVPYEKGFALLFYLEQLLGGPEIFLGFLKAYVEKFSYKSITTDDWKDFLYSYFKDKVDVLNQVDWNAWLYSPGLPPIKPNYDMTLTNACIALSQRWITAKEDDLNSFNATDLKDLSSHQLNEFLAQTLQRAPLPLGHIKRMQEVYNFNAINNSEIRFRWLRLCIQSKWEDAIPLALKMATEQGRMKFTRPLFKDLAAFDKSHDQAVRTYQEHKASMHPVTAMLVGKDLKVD
Summary of the method: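 Peptidase activity of human LTA4H (1 nM final) on Arg-AMC (50 μM final), with compound, 1 h at room temperature. Buffer: 50 mM Tris-HCl pH 7.5, 100 mM KCl, 0.5% BSA.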

pIC50 [1] | pIC50 (human LTA4 hydrolase) | Structure (SMILES)
6.47 | 8.77 | O=C(N1CCN(Cc2ccc3cc(Oc4ccc(-c5ccn[nH]5)cn4)ccc3n2)CC1)C1(CO)CC1 [Example 138, (1-Hydroxymethyl-cyclopropyl)-(4-{6-[5-(2H-pyrazol-3-yl)-pyridin-2-yloxy]-quinolin-2-ylmethyl}-piperazin-1-yl)-methanone]
6.30 | 8.52 | O=C(C1CC(O)C1)N1CCN(Cc2ccc3cc(Oc4ccc(-c5ccn[nH]5)cn4)ccc3n2)CC1 (centres unmarked) [Example 139, (3-Hydroxy-cyclobutyl)-(4-{6-[5-(2H-pyrazol-3-yl)-pyridin-2-yloxy]-quinolin-2-ylmethyl}-piperazin-1-yl)-methanone]
6.82 | 9.24 | CO[C@H](C)C(=O)N1CCN(Cc2ccc3cc(Oc4ccc(-c5ccn[nH]5)cn4)ccc3n2)CC1 [Example 140, (R)-2-Methoxy-1-(4-{6-[5-(2H-pyrazol-3-yl)-pyridin-2-yloxy]-quinolin-2-ylmethyl}-piperazin-1-yl)-propan-1-one]
6.40 | 8.57 | O=C([C@@H]1CCOC1)N1CCN(Cc2ccc3cc(Oc4ccc(-c5ccn[nH]5)cn4)ccc3n2)CC1 [Example 141, (4-{6-[5-(2H-Pyrazol-3-yl)-pyridin-2-yloxy]-quinolin-2-ylmethyl}-piperazin-1-yl)-(R)-tetrahydro-furan-3-yl-methanone]
6.03 | 8.60 | COCCCC(=O)N1CCN(Cc2ccc3cc(Oc4ccc(-c5ccn[nH]5)cn4)ccc3n2)CC1 [Example 142, 4-Methoxy-1-(4-{6-[5-(2H-pyrazol-3-yl)-pyridin-2-yloxy]-quinolin-2-ylmethyl}-piperazin-1-yl)-butan-1-one]
6.24 | 8.74 | O=C(N1CCN(Cc2ccc3cc(Oc4ccc(-c5ccn[nH]5)cn4)ccc3n2)CC1)C1(O)CCC1 [Example 143, (1-Hydroxy-cyclobutyl)-(4-{6-[5-(2H-pyrazol-3-yl)-pyridin-2-yloxy]-quinolin-2-ylmethyl}-piperazin-1-yl)-methanone]
6.18 | 8.64 | CCCOCC(=O)N1CCN(Cc2ccc3cc(Oc4ccc(-c5ccn[nH]5)cn4)ccc3n2)CC1 [Example 144, 2-Propoxy-1-(4-{6-[5-(2H-pyrazol-3-yl)-pyridin-2-yloxy]-quinolin-2-ylmethyl}-piperazin-1-yl)-ethanone]
6.29 | 8.89 | CC(C)(C#N)C(=O)N1CCN(Cc2ccc3cc(Oc4ccc(-c5ccn[nH]5)cn4)ccc3n2)CC1 [Example 145, 2,2-Dimethyl-3-oxo-3-(4-{6-[5-(2H-pyrazol-3-yl)-pyridin-2-yloxy]-quinolin-2-ylmethyl}-piperazin-1-yl)-propionitrile]
6.12 | 8.47 | N#CC1(C(=O)N2CCN(Cc3ccc4cc(Oc5ccc(-c6ccn[nH]6)cn5)ccc4n3)CC2)CCC1 [Example 146, 1-(4-{6-[5-(2H-Pyrazol-3-yl)-pyridin-2-yloxy]-quinolin-2-ylmethyl}-piperazine-1-carbonyl)-cyclobutanecarbonitrile]
5.96 | 8.10 | N#CC1(C(=O)N2CCN(Cc3ccc4cc(Oc5ccc(-c6ccn[nH]6)cn5)ccc4n3)CC2)CCOCC1 [Example 148, 4-(4-{6-[5-(2H-Pyrazol-3-yl)-pyridin-2-yloxy]-quinolin-2-ylmethyl}-piperazine-1-carbonyl)-tetrahydro-pyran-4-carbonitrile]
6.70 | 9.33 | CC(C#N)C(=O)N1CCN(Cc2ccc3cc(Oc4ccc(-c5ccn[nH]5)cn4)ccc3n2)CC1 (centres unmarked) [Example 149, 2-Methyl-3-oxo-3-(4-{6-[5-(2H-pyrazol-3-yl)-pyridin-2-yloxy]-quinolin-2-ylmethyl}-piperazin-1-yl)-propionitrile]
6.31 | 8.47 | CC1(O)CC(C(=O)N2CCN(Cc3ccc4cc(Oc5ccc(-c6ccn[nH]6)cn5)ccc4n3)CC2)C1 (centres unmarked) [Example 150, (3-Hydroxy-3-methyl-cyclobutyl)-(4-{6-[5-(2H-pyrazol-3-yl)-pyridin-2-yloxy]-quinolin-2-ylmethyl}-piperazin-1-yl)-methanone]
6.10 | 8.21 | O=C([C@@H]1CCC[C@@H]1O)N1CCN(Cc2ccc3cc(Oc4ccc(-c5ccn[nH]5)cn4)ccc3n2)CC1 [Example 151, ((1R,2S)-2-Hydroxy-cyclopentyl)-(4-{6-[5-(2H-pyrazol-3-yl)-pyridin-2-yloxy]-quinolin-2-ylmethyl}-piperazin-1-yl)-methanone]
